The results in this text go back to BindingDB's records for doi:10.1021/jm060742o (Rheinische Friedrich-Wilhelms-Universitat Bonn, 2006).

What all share (test): Cholinesterase Inhibition Assay
The target of test [1] is Acetylcholinesterase (Electrophorus electricus, UniProt O42275). The protocol: (§1) The cholinesterase assays were performed using colorimetric method reported by Ellman. The absorbance changed at 412 nm and was monitored with spectrophotometer. The reaction rates were compared and the percent inhibition due to the presence of test compounds was calculated. Inhibition curve was obtained for each compound. The compound concentration producing 50% of enzyme inhibition (IC50) was determined.

The target of test [2] is Acetylcholinesterase (Homo sapiens, UniProt P22303). To be noted: pH 7.3; 25 °C. The protocol: as §1
Test [3] concerns the target Acetylcholinesterase (Tetronarce californica, UniProt P04058). The procedure: as §1
A further test concerns the target Cholinesterase (Homo sapiens, UniProt P06276). The procedure:
as §1

Chain of Acetylcholinesterase (Electrophorus electricus, UniProt O42275) (O42275 whole entry): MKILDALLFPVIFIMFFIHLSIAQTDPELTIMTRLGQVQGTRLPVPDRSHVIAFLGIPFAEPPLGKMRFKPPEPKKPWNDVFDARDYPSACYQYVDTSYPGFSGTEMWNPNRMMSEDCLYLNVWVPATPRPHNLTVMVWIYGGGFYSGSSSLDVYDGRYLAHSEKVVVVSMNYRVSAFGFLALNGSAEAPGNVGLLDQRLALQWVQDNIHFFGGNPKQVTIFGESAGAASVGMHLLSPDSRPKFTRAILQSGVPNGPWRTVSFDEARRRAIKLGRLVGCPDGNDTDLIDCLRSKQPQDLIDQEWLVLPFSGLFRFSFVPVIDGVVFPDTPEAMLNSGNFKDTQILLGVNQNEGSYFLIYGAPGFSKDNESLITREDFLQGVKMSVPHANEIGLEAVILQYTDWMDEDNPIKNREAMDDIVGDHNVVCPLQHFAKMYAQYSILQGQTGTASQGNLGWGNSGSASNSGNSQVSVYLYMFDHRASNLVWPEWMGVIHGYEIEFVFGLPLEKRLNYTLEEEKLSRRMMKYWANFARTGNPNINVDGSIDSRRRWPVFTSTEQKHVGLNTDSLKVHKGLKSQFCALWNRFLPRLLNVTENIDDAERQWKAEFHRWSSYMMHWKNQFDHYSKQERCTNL
Chain of Acetylcholinesterase (Homo sapiens, UniProt P22303) (P22303 whole entry): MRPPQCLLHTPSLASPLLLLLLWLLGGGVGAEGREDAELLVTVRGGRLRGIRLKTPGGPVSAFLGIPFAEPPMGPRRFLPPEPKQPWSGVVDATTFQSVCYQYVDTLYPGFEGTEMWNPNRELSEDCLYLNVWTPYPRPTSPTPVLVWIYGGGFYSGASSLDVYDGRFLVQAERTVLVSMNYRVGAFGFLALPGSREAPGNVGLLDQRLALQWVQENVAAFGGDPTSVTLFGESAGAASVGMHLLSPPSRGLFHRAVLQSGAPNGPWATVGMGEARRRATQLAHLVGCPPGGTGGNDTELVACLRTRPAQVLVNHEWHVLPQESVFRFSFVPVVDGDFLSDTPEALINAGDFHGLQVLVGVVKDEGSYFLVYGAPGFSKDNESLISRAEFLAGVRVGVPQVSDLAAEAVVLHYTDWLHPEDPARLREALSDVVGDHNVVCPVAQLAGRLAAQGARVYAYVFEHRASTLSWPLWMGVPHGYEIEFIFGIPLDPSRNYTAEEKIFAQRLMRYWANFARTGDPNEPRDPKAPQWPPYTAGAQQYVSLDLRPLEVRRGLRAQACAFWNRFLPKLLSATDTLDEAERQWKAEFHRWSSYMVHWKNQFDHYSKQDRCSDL
Chain of Acetylcholinesterase (Tetronarce californica, UniProt P04058) (P04058 whole entry): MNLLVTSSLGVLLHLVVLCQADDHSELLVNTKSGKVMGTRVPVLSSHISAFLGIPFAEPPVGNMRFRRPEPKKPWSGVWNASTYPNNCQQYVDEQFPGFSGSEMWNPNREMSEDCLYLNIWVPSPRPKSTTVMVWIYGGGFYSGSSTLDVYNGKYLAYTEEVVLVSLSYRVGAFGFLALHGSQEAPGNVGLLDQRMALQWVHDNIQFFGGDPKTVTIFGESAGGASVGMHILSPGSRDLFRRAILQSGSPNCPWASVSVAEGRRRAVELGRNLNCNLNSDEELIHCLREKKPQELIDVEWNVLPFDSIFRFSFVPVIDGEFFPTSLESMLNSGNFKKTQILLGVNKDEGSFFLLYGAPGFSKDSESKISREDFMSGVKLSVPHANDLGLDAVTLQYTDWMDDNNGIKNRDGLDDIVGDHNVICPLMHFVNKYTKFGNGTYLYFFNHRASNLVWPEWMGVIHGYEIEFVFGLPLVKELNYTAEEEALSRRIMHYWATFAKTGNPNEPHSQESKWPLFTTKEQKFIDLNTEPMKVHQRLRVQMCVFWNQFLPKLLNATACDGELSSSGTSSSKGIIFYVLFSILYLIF
Chain of Cholinesterase (P06276 whole entry): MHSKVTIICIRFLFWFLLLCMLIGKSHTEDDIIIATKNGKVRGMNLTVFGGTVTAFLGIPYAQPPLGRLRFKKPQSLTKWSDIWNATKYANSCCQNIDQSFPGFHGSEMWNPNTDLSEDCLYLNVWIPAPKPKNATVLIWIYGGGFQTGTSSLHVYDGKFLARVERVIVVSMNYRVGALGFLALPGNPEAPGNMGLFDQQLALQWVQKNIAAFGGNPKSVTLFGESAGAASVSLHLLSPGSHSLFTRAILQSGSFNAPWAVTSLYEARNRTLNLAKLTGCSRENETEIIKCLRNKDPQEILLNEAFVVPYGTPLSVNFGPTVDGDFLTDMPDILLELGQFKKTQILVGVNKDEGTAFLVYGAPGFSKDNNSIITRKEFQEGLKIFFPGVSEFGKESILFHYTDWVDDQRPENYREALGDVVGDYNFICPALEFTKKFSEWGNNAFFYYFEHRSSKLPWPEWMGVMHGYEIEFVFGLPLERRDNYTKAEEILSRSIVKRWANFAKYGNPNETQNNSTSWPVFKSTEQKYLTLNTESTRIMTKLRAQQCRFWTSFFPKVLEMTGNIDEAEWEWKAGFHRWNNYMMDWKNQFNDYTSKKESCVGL

Usually IC50 stands for the concentration that inhibits the measured activity by half. High values mean weaker potency in that assay, low ones greater potency in that assay. `COc1cc(C(=O)NCCCCCCCCC(=O)NNc2c3c(nc4ccccc24)CCCC3)cc(OC)c1OC` [3,4,5-Trimethoxy-N-(9-oxo-9-(2-(1,2,3,4-tetrahydroacridin-9-yl)hydrazino)nonyl)-benzamide]: the IC50 against Acetylcholinesterase [1] was 2.73 nM; against Acetylcholinesterase [2], 5.08 nM; against Acetylcholinesterase [3], 5.99 nM; against Cholinesterase, 1.38 nM.
Broadly, the Ki is the equilibrium dissociation constant of an inhibitor or competing ligand from its target. For the compound `COc1cc(C(=O)NCCCCCCCC(=O)NNc2c3c(nc4ccccc24)CCCC3)cc(OC)c1OC` [3,4,5-trimethoxy-N-[7-(N'-1,2,3,4-tetrahydroacridin-9-ylhydrazinecarbonyl)heptyl]benzamide], the affinity on Acetylcholinesterase [1] corresponds to a Ki of 3.23 nM.
